The results in this text go back to patent US20200368338A1, “CONJUGATE OF WT1-DERIVED PEPTIDES AND COMPOSITION COMPRISING THE SAME” (SUMITOMO DAINIPPON PHARMA CO., LTD., priority 2017, published 2020).

The experiment deals with HLA-A2402 transgenic mouse. As to the kind of experiment: Evaluation of CTL inducing ability in vivo in HLA-A2402 transgenic mouse (IFNγ ELISPOT assay of splenocytes). The conditions noted are these: intradermal emulsion with Montanide ISA 51 VG, tail base, two sites, splenocytes one week after administration stimulated with peptide of SEQ ID NO: 4 at 10 μg/ml, FIG. 1. The method, then:
The solution was diluted with water for injection to a concentration of 5.0 mg/mL, and then converted to an emulsion by addition of an equal volume of Montanide ISA 51 VG. […] One week after the administration, the mice were sacrificed with CO2 gas. Splenocytes were harvested from spleens removed from the mice. […] In particular, an ELISPOT plate was treated with an anti-mouse-IFNγ antibody on the day before preparation of the splenocyte samples. On the next day, the plate was blocked by treatment with an RPMI 1640 medium with 10% FBS. […] For in vitro stimulation of the cells, the peptide of SEQ ID NO: 4 was dissolved in DMSO at a concentration of 40 mg/ml, diluted with RPMI 1640 with 10% FBS to 40 μg/ml, and added to the splenocyte-containing wells at a final concentration of 10 μg/ml. […] Then, after removal of the culture medium from the wells, the ELISPOT plate was subjected to treatment for cell staining in accordance with the manufacturer's protocol. Stained spots were counted on ImmunoSpot Analyzer (C.T.L.).

In the case of “CYTWNQMNL [peptide of SEQ ID NO: 4, HLA-A2402-restricted WT1 peptide]”, the “induction of CTLs responsive to the peptide of SEQ ID NO: 4 (IFNγ-producing splenocytes)” value is recorded as “induced CTLs responsive to the peptide of SEQ ID NO: 4”.
